{C6NH2} = C6-amino linker; d = 2'-deoxy (DNA); m = 2'-O-methyl
Assays:
[1] = system: endothelial cells (HUVECs and the murine endothelioma cell line EOMA); assay: Uptake of fluorescence labeled Id1-PCAO by endothelial cells, confocal fluorescence microscopy; assay type: cell-based; settings: 200 nM, no lipid or other carrier
Method: In order to determine if the Id1 PCAO retained the homing specificity of the F3 peptide and could be taken up by cells in the absence of lipid or other specialized carrier, fluorescence labeled Id1-PCAOs were supplied to different cell lines at a concentration of 200 nM. […] Fluorescein and tetra methyl-rhodamine red labeled PCAOs were also tested to control for the effects of the fluorophore and similar results were obtained. To rule out effects from the fixation process we performed epifluorescence live imaging on viable HUVECs and HeLa cells and similar results were observed.
HUVEC were seeded 24 h prior to transfection at 10^5 cells/well in six-well MWDs in standard growth media (EGM-2) without antibiotics. At the day of transfection the AO-conjugates and control oligos were diluted in EGM-2 to the indicated concentration. Media was replaced with the supplemented EGM-2. The procedure was repeated every 24 h for two more days, samples were drawn at the indicated time points and analyzed via western blot. Other cell lines were treated similarly, with the exception that Id1-PCAO was added to standard growth media, DME or RPMI 1640 in accordance to cell type. Uptake studies in different cell lines with fluorescence labeled Id1-PCAO were performed in both the standard growth media (DME, RPMI 1640 or EGM-2) or in OptiMEM I (supplemented with 2% FBS) to control for media effects.

[2] = system: Id1; assay: Down-regulation of Id1 in tumor endothelium of MMTV-HER2/neu (YD) breast carcinoma, IHC; assay type: in vivo, mouse
Method: Homing studies were also performed in animals bearing spontaneous tumors in MMTV-HER2/neu (YD) and PTEN+/− backgrounds. […] To test if the PCAOs down-regulate Id1 protein levels in vivo, tumor bearing transgenic MMTV-HER2/neu (YD) Id1+/− mice were injected intravenously with Id1-PCAOs. Since repeated application of the drug was necessary to yield significant down-regulation in vitro, the animals were treated with […] of Id1-PCAO or Id1-AO for three consecutive days. Over 80% of tumor vessels in animals treated with Id1-PCAO were completely negative for Id1 expression by IHC.
YD neu transgenic animals bearing breast carcinoma were treated for 3 subsequent days with 25 nmol of either Id1-ASO or F3-Id1-ASO conjugate in PBS by i.v. injection. 24 h after the last injection animals were sacrificed, the tumor removed, fixed in paraformaldehyde and embedded in parafine. IHC staining was performed for Id1 (antibody C-20, SantaCruz Biotechnology, Santa Cruz, Calif.) on sections.

[3] = system: HUVEC; assay: Wound healing (scratch) assay; assay type: cell-based, human; settings: 200 nM, 72 h treatment, 22 h after scratch
Method: HUVEC (4th passage) were seeded 100,000 cells into the wells of a fibronectin coated two-well chamber slides (BD Bioscience). Medium was exchanged after 18 h with standard medium containing either F3-ASO conjugates or ASO at a concentration of 200 nM. The treatment was repeated every 24 h for two more days. 72 h after starting the treatment a scratch was applied with a micropipette-tip. Media was removed the cell-layer once washed with PBS and media containing the F3-conjugate or the control ASO was added. The chamber slides were incubated at 37° C. with 5% CO2 for 22 h. The cells were washed with PBS, fixed with 4% paraformaldehyde in PBS for 20 min at r.t., and washed twice with PBS. The slides were mounted and images were taken under a light microscope to access the grade of closure of the applied scratch.
HUVEC were plated in fibronectin coated two-well chamber slides (BD Bioscience) at 2.5×10^4 cells/well. Growth media was supplemented with 200 nM Id1-PCAO (or Id1-AO) and renewed every 24 h. 72 h after plating a scratch was applied using a 20 μl pipette tip. Chambers were washed with media and supplemented media was added. 18 h after the scratch was applied, cells were fixed and imaged.

GCACCagctccttgaggcGUGAG (antisense GCACCAGCTCCTTGAGGCGUGAG; sugars from the 5' end m5 d13 m5, 5' {C6NH2}, backbone and methylation of C not given here; DNA gap phosphorothioate linked, F3 peptide conjugate form, further chemistry not fully specified) [Id1-AO, ID No. 2]
uptake / internalization into endothelial cells [1]: no internalization was observed | down-regulation of Id1 in tumor vessels ([2]; MMTV-HER2/neu (YD) Id1+/− mice, 15 nmol/d i.v., three consecutive days): no detectable down-regulation of Id1 | Id1 expression in tumor endothelium, IHC ([2]; YD neu transgenic animals, 25 nmol i.v., 3 subsequent days, 24 h after last injection): no effect | closure of the applied scratch [3]: closed completely

— US9393317B2, “Peptide-conjugated oligonucleotide therapeutic and method of making and using same” (Sloan-Kettering Institute for Cancer Research, priority 2008, dated 2016)
